Tests used:
[1] = cited from earlier work
[2] = tested on: Influenza A/California/04/2009 (H1N1); set-up: species or system mice; conditions: mouse, in vivo

**Q.** Which in vivo half-life [1] does the source give for “2′-3″cyclic guanosine monophosphate adenosine monophosphate [cGAMP]” here?
**A.** ~35 min

**Q.** With CCOC(=O)C1=C[C@@H](OC(CC)CC)[C@H](NC(C)=O)[C@@H](N)C1 [Oseltamivir] as the molecule, how does the “mean peak weight loss” value [2] read?
**A.** −32%

— patent publication US20230233674A1 (priority 2022, published 2023)
